This note sets out measurements from patent US9155765B2, “Establishment of patient- or person-specific cardiac myocyte cell lines from human induced pluripotent stem cells (iPSCs)” (Baylor Research Institute, priority 2011, dated 2015).

The test system of the test is derived cardiac cell line. Briefly: Effect of hypertrophy inducing drugs on derived cardiac cell line (cell size change). As to conditions: 24 hrs after drug administration; phase-contrast images before and after (FIG. 8). The format is cell-based, human. Here is the method:
The effect of hypertrophy inducing drugs on derived cardiac cell line was tested. A response to cardiac toxic reagents is important in evaluating the properties of derived cardiac cell line and the future usage of the cells for testing cardiac toxic reagents as well as the mechanistic study on cardiomyopathy. Tumor necrosis factor (TNF)-α was used for the induction and compared the cell size changes at 24 hrs after drug administration.

Turning to Tumor necrosis factor (TNF)-α [TNF-α], the cell size changes result was “increase in the sizes of treated cardiac cells”.
